Two molecules from patent US11497740B2, “Use of Jumonji C demethylase inhibitors for the treatment and prevention of chemotherapy resistance and radioresistance in cancer” (THE BOARD OF REGENTS OF THE UNIVERSITY OF TEXAS SYSTEM, priority 2016, dated 2022) can be followed below.

One test has as its system H1299 Parental cells. Description: Emergence of paclitaxel+carboplatin drug-tolerant colonies, H1299 Parental. The following applies: sub-lethal doses with paclitaxel+carboplatin. Format: cell-based, human. The text has this: FIGS. 8A-8E. […] Response was greater than additive, indicated by positive ΔBliss. […] Representative images from replicate assays (n=3) are shown. […] See also FIGS. 15-16.

In test [1] the test system is radiosensitive (HCC1719, H23, H1650, H1395 and H2228) NSCLC cell lines. Description: Clonogenic survival with IR, radiosensitive NSCLC lines. Type of test: cell-based, Human. How it is done:
Cells were serially diluted to appropriate concentrations and plated into 60-mm dish in triplicate for 4 h. Then cells were treated with the indicated drugs, and irradiated 4 hours later with graded doses of radiation for concurrent treatment or irradiated and 4 hours later the drugs added for post-treatment. All cells were irradiated at room temperature in ambient air using a 137Cs source (Mark 1-68 irradiator, JL Shepherd & Associated). Surviving colonies were stained with crystal violet approximately 10 to 14 days later and colonies formed with more than 50 cells were counted. Clonogenic fraction of irradiated cells was normalized to the plating efficiency of unirradiated controls. The data are presented as the mean±SD. The curve S=e^−(αD+βD2) was fitted to the experimental data using a least square fit algorithm using the program Sigma Plot 11.0 (Systat Software, Inc.).

Another test concerns HR repair in U2OS cells. The test can be described thus: GFP HR reporter assay, U2OS cells. Type of test: cell-based. How it is done: FIGS. 29A-29B. […] FIG. 29A: U2OS cells were transfected with the NHEJ or HR constructs (0.25 ug and 0.5 ug respectively) and a pN1-mCherry plasmid (0.05 ug). Then cells were seeded in the presence or absence of JIB-04. Cells were analyzed by flow cytometry for GFP expression 12 h and 24 h after transfection using green-versus-red fluorescent plot. 10,000 cells were analyzed in each sample and NHEJ or HR Repair Frequency (% GFP+ cells/% mCherry+ cells) plotted. Average+/−SEM of triplicates for one of two representative experiments is shown. ***p<0.001 vs control (Kruskal-Wallis). FIG. 29B: Representative FACS traces for the analysis of NHEJ and HR shown in A.
(Reporter assays use an easily measured gene product as a stand-in for the process of interest.)

Another test deals with DNA-PKcs. Description: DNA-PKcs p-T2609 foci kinetics after IR. Format: cell-based, Human. The following applies: H1299; JIB-04 16 nM 4 h, 10 Gy. How it is done:
NSCLCs were seeded onto Lab-Tek II Chamber Slides (Thermo Fisher) and 24 hours later pretreated with JIB-04 or DMSO for 4 h. Then cells were exposed to a total dose of 2 Gy (γH2AX and 53BP1) or 10 Gy (RAD-51 and DNAPKcs p-T2609) radiation. For knockdown and overexpression experiments H1299 cells were transfected using the Amaxa Nucleofector; program X-005. Specifically, 3×10^6 were transfected with siRNA duplexes targeting JMJD2A, JMJD2B, Jarid1A, Jarid1b, scrambled siRNA (250 nM final concentration) or expression vectors pCMVHA-JMJD2A, pCMVHA-JMJD2B, pCMVHA-Jarid1A, pCMVHA-Jarid1B, PC-2 for 72 hours, followed by quantification of expression or irradiation. Then, cells were fixed in 4% formaldehyde/PBS for 15 min, permeabilized with 0.5% Triton X-100 for 15 min on ice, and blocked with 5% bovine serum albumin in PBS for 1 h. The slides were incubated with an antibody against phospho-Histone γH2AX (1:1000, 3 h at room temperature), 53BP1 (1:500, 3 h at room temperature), Rad-51 (1:500, 48 hs 4° C.) or DNAPKcs p-T2609 (1:500, 48 hs 4° C.). Alexa Fluor 488-conjugated goat anti-Rabbit, […] goat anti-mouse or rhodamine red-conjugated goat anti-mouse secondaries antibodies were used (1:1000, 1 h at room temperature). […] Cells were analyzed on a Zeiss upright fluorescent microscope.

For another test, the system named is H3K9me3 at DSBs. Description: γH2AX immunoprecipitation, H3K9me3 at DSBs. The settings on record: JIB-04 4 h, IR 20 Gy. Type of test: cell-based, Human. How it is done:
For Histone demethylase activity determination 10×10^6 H1299 cells were seeded in P150 plates. Next day cells were preincubated with JIB-04 for 4 h and then irradiated with 20 Gy. Media was removed from cells, washed with PBS and fixed with 3% w/v PFA, 2% w/v sucrose in PBS for 1 min. Then cells were washed, scraped into media, pelleted by centrifugation (at 500 g for 2 min) and washed with Phosphatase inhibitor 1×, 1 μM Wortmannin (WM) and protease inhibitors 1× (Sigma). Cell pellets were re-suspended in 2.5× the packed cell volume (PCV) of Nucleosome Preparation Buffer (NPB, 10 mM HEPES [pH 7.9], 10 mM KCl, 1.0 mM CaCl2, 1.5 mM MgCl2, 0.34 M sucrose, 10% glycerol, 1 mM DTT, 0.1% Triton X-100) containing Phosphatase inhibitor, 1 μM Wortmannin (WM) and protease inhibitors (Sigma) and 100 U ml-1 micrococcal nuclease (MNase) and incubated at […] for 45 min (note: WM is required to block in vitro DNA-PK/ATM activation by MNase-produced DSBs). An equal volume of Nucleosome Solubilization Buffer (NSB=Nucleosome preparation buffer+2% [v/v] NP-40, 2% [v/v] Triton X-100, 600 mM NaCl) was then added. Samples were then vortexed, sonicated briefly and centrifuged at 10,000 rpm for 10 min. […] Protein levels on samples were quantified and equal amounts of protein run on 4-12% SDS acrylamide gels. […] Quantification was done using the using ImageJ software (National Institute of Health, NIH)

The test system of test [2] is H3K4me3 demethylase Jumonji enzymes. Description: Histone demethylase activity in H1299 cellular extracts (H3K4me3). Format: cell-based, Human. The settings on record: JIB-04 4 h. On the procedure: For Histone demethylase activity determination 2×10^6 H1299 cells were seeded in P150 plates. After 24 h cells were pretreated with JIB-04 or DMSO for 4 h, irradiated with a total dose of 8 Gy of radiation. Then cells were sonicated (3×4 sec) and equal amounts of protein were incubated with a histone H3K4me3 or H3K9me3 substrate in a reaction buffer containing cofactors for 1 h at 37° C. Finally specific immune-detection of the H3K4me2 or H3K9me2 product using the Epigentek kit P-3081 for H3K9me3 demethylation and P-3083 for H3K4me3 demethylation. Background readings were given by heat inactivated extracts.

Regarding `CCOC(=O)CCNc1cc(N2CCc3ccccc3CC2)nc(-c2ccccn2)n1` [GSK-J4], the “emergence of drug-tolerant persister colonies” value in the test with H1299 Parental cells was “prevented the emergence of drug-tolerant persister colonies”.
Turning to `Clc1ccc(N/N=C(\c2ccccc2)c2ccccn2)nc1` [JIB-04], the “survival fraction at 2 Gy of radiation (SF2)” value in test [1] is recorded as “not affecting already radiosensitive lines”. Moreover, the HR repair result with HR repair in U2OS cells was “inhibits HR repair”. In the test with DNA-PKcs, the DNA-PKcs foci resolution entry is given as “majority of DNA-PKcs foci remained unresolved even 24 h post irradiation” and the “DNA-PKcs recruitment to DSBs” value was “robust deficiency in DNA-PKcs recruitment with foci not forming until 6 h post IR”. Further, in the test with H3K9me3 at DSBs, the “H3K9me3 at sites of DNA damage marked by γH2AX” value is listed as “No changes in H3K9me3”. Further, the “IR-increased H3K4me3 demethylase activity” value in test [2] (IR 8 Gy, 15 min after radiation) was “blocked this increased activity”. The “basal H3K4me3 demethylase activity” value in test [2] (no IR) is given as “did not have any effects on basal activity”.
